Laboratory results reported in PMC5059921, “Chalepin: isolated from Ruta angustifolia L. Pers induces mitochondrial mediated apoptosis in lung carcinoma cells” (BMC Complementary and Alternative Medicine, 2016).
Converted amounts (≈) assume the structure as drawn. Read-outs that look alike come from different tables or passages of the source.

How the values were obtained:
A549 cell line = experiment: SRB in vitro cytotoxicity screening; format: cell-based, human; settings: Homo sapiens, A549, isolated compounds
Procedure: (§1) The human cell lines A549 (lung cancer) and Ca Ski (cervical cancer) were cultured as monolayer in RPMI 1640 growth media whereas HCT-116 (colon cancer) and MRC5 (human normal lung fibroblasts) was cultured in McCoy’s 5A and EMEM medium, respectively. All cells were purchased from the […] (ATCC, USA). All the media were supplemented with 10 % v/v foetal bovine serum (FBS), 100 μg/mL penicillin/streptomycin, and 50 μg/mL amphotericin B. The cells were cultured in a 5 % CO2 incubator at 37 °C.
(§2) The monolayer cell culture was detached using accutase and the cell count was adjusted to 2.5 x10^5 -3.0 x10^5 cells/mL using medium containing feotal bovine serum. The cells were then plated into 96 wells with a cell density of 5000-7000 cells/well and then incubated for 24 h to allow adherence of cells to the base of well of the plates. The media was then removed and 200 μl of fresh media containing different concentration of various extracts or isolated compounds were added. Cisplatin was used as the positive control. The plates were incubated for 24, 48 and 72 h at 37 °C and 5 % CO2. The cytotoxicity of the extracts and isolated compounds were screened using the […] (SRB) assay. This assay was first described by Houghton in 2007 [8]. The incubation was halted by gentle addition of 50 μl ice cold 4 % trichloroacetic acid (TCA) to each well and the plates were incubated at 4 °C for 1 h. Then, the supernatant was discarded and the plates were washed with distilled water for 5 times and then air dried. SRB dye, 50 μl, (0.4 % w/v) was added into each well and the treated cells and control were incubated at room temperature for 30 min. The unbound dye was removed by rapid washing four times with 1 % acetic acid. The plates were then air dried and 100 μl of tris base (10 mM unbuffered, pH 10.5) was added and the plates were shaken at 500 rpm for 5 min to solublize the bound SRB stain. The plates were then read with an ELISA reader (Synergy H1 Hybrid) at an absorbance of 492 nm.

[1] = tested on: MRC5 (human normal lung fibroblasts); experiment: SRB in vitro cytotoxicity screening (toxicity to normal cells); format: cell-based; settings: Homo sapiens, MRC5, isolated compounds, 72 h, read-out: IC50 in μg/ml (μM) (MRC5) 72 h (converted)
Procedure: as §1, §2

[2] = tested on: cervical carcinoma (HeLa); parameters: method as in PMID 17109253; settings: arborinine isolated from Ruta graveolens; cited from earlier work
[3] = tested on: breast adenocarcinoma (MCF-7); parameters: method as in PMID 17109253; settings: arborinine isolated from Ruta graveolens; cited from earlier work
[4] = tested on: skin epidermoid carcinoma (A431); parameters: method as in PMID 17109253; settings: arborinine isolated from Ruta graveolens; cited from earlier work
washed rabbit platelets = tested on: washed rabbit platelets; parameters: method as in earlier work; settings: cited from earlier work; for % inhibition of platelet aggregation, inducer AA: AA 100 /c109/c77; for % inhibition of platelet aggregation, inducer Col: collagen 10 /c109g/mL; for % inhibition of platelet aggregation, inducer PAF: PAF 2ng/mL; for % inhibition of platelet aggregation, inducer Thr: thrombin 0.1 U/mL; for antiplatelet aggregation activity (in words): at 100 /c109g/mL
[5] = tested on: Hela: Human cervix epithelioid carcinoma; parameters: method as in earlier work; settings: cited from earlier work
[6] = tested on: DLD (DLD-1): Human colon adenocarcinoma; parameters: method as in earlier work; settings: cited from earlier work
Hepa: Human hepatoma = tested on: Hepa: Human hepatoma; parameters: method as in earlier work; settings: cited from earlier work
A-549 tumour cell line = settings: cited from earlier work
[7] = tested on: hepatitis C virus, hepatoma cell line (Huh7.5); parameters: method as in PMID 25454460; settings: cited from earlier work
[8] = 48 h, value in brackets, read-out: IC50 in μg/ml (μM) (A549) 48 h (converted)
[9] = 48 h, read-out: IC50 in μg/ml (μM) (A549) 48 h (converted)
[10] = 72 h, value in brackets, read-out: IC50 in μg/ml (μM) (A549) 72 h (converted)
[11] = 72 h, read-out: IC50 in μg/ml (μM) (A549) 72 h (converted)

Compound: COc1cc2c(c(O)c1OC)c(=O)c1ccccc1n2C [Arborinine, arborinine]
- IC50 (A549 cell line; [8]): 97.2 µM
- IC50 (A549 cell line; [9]): 27.7 ± 0.26 µg/mL
- IC50 (A549 cell line; [10]): 46 µM
- IC50 (A549 cell line; [11]): 13.1 ± 0.06 µg/mL
- IC50 ([1]; value in brackets): 73 µM
- IC50 [1]: 20.8 ± 0.15 µg/mL
- IC50 [2]: 1.84 µg/mL (≈ 6.45 µM)
- IC50 [3]: 11.74 µg/mL (≈ 41.1 µM)
- IC50 [4]: 12.95 µg/mL (≈ 45.4 µM)

Compound: graveolinine [Compound 16]
- % inhibition of platelet aggregation, inducer AA (washed rabbit platelets; Conc. 0.2 /c109g/mL): 6.8%
- % inhibition of platelet aggregation, inducer AA (washed rabbit platelets; Conc. 0.5 /c109g/mL): 14.9%
- % inhibition of platelet aggregation, inducer Col (washed rabbit platelets; Conc. 0.5 /c109g/mL): 5.8%
- % inhibition of platelet aggregation, inducer AA (washed rabbit platelets; Conc. 1 /c109g/mL): 26.9%
- % inhibition of platelet aggregation, inducer Col (washed rabbit platelets; Conc. 1 /c109g/mL): 19.2%
- % inhibition of platelet aggregation, inducer AA (washed rabbit platelets; Conc. 2 /c109g/mL): 38.4%
- % inhibition of platelet aggregation, inducer Col (washed rabbit platelets; Conc. 2 /c109g/mL): 25.4%
- % inhibition of platelet aggregation, inducer AA (washed rabbit platelets; Conc. 5 /c109g/mL): 71.2%
- % inhibition of platelet aggregation, inducer Col (washed rabbit platelets; Conc. 5 /c109g/mL): 33.3%
- % inhibition of platelet aggregation, inducer AA (washed rabbit platelets; Conc. 10 /c109g/mL): 73.1%
- % inhibition of platelet aggregation, inducer Col (washed rabbit platelets; Conc. 10 /c109g/mL): 49.5%
- % inhibition of platelet aggregation, inducer AA (washed rabbit platelets; Conc. 20 /c109g/mL): 77.4%
- % inhibition of platelet aggregation, inducer Col (washed rabbit platelets; Conc. 20 /c109g/mL): 72.6%
- % inhibition of platelet aggregation, inducer AA (washed rabbit platelets; Conc. 50 /c109g/mL): 100.0%
- % inhibition of platelet aggregation, inducer Col (washed rabbit platelets; Conc. 50 /c109g/mL): 81.2%
- % inhibition of platelet aggregation, inducer AA (washed rabbit platelets; Conc. 100 /c109g/mL): 100.0%
- % inhibition of platelet aggregation, inducer PAF (washed rabbit platelets; Conc. 100 /c109g/mL): 34.6%
- % inhibition of platelet aggregation, inducer Col (washed rabbit platelets; Conc. 100 /c109g/mL): 100.0%
- % inhibition of platelet aggregation, inducer Thr (washed rabbit platelets; Conc. 100 /c109g/mL): 9.0%
- ED50 Hela [5]: - (“-“: ED50 /c6220 /c109g/mL)
- ED50 DLD [6]: - (“-“: ED50 /c6220 /c109g/mL)
- ED50 Hepa (Hepa: Human hepatoma): - (“-“: ED50 /c6220 /c109g/mL)

Compound: rutamarin [Compound 4]
- IC50 A-549 (A-549 tumour cell line): 1318 µg/mL

Compound: CC(=O)O[C@H]1C(=O)[C@@]2(C)[C@H]([C@H](OC(=O)c3ccccc3)[C@]3(O)C[C@H](OC(=O)[C@H](O)[C@@H](NC(=O)c4ccccc4)c4ccccc4)C(C)=C1C3(C)C)[C@]1(OC(C)=O)CO[C@@H]1C[C@@H]2O [Taxol, reference compound]
- IC50 A-549 (A-549 tumour cell line): 16.6 µg/mL (≈ 19.4 µM)

Compound: bergapten [Compound 9]
- % inhibition of platelet aggregation, inducer AA (washed rabbit platelets; Conc. 50 /c109g/mL): 63.5%
- % inhibition of platelet aggregation, inducer PAF (washed rabbit platelets; Conc. 50 /c109g/mL): 4.5%
- % inhibition of platelet aggregation, inducer Col (washed rabbit platelets; Conc. 50 /c109g/mL): 59.0%
- % inhibition of platelet aggregation, inducer Thr (washed rabbit platelets; Conc. 50 /c109g/mL): 7.5%
- antiplatelet aggregation activity (in words) (washed rabbit platelets): no obvious activity
- ED50 Hela [5]: - (“-“: ED50 /c6220 /c109g/mL)
- ED50 DLD [6]: - (“-“: ED50 /c6220 /c109g/mL)
- ED50 Hepa (Hepa: Human hepatoma): - (“-“: ED50 /c6220 /c109g/mL)

Compound: CCCCCCCCCc1cc(=O)c2ccccc2[nH]1 [pseudane IX]
- replication of hepatitis C virus [7]: stop the replication

Compound: C=CC(C)(C)c1cc2cc3c(cc2oc1=O)OC(C(C)(C)OC(C)=O)C3 (stereo not drawn) [Rutamarin, rutamarin]
- IC50 (A549 cell line; [8]): 158 µM
- IC50 (A549 cell line; [9]): 56.3 ± 1.53 µg/mL
- IC50 (A549 cell line; [10]): 192 µM
- IC50 (A549 cell line; [11]): 68.5 ± 3.06 µg/mL
- IC50 ([1]; value in brackets): > 281 µM
- IC50 [1]: > 100 µg/mL
- IC50 against A549 cell line (A-549 tumour cell line): 1.318 µg/mL (≈ 3.7 µM)

Compound: COc1cc2ccc(=O)oc2cc1O [Compound 15, scopoletin]
- % inhibition of platelet aggregation, inducer AA (washed rabbit platelets; Conc. 100 /c109g/mL): 14.7%
- % inhibition of platelet aggregation, inducer PAF (washed rabbit platelets; Conc. 100 /c109g/mL): 1.6%
- % inhibition of platelet aggregation, inducer Col (washed rabbit platelets; Conc. 100 /c109g/mL): 3.4%
- % inhibition of platelet aggregation, inducer Thr (washed rabbit platelets; Conc. 100 /c109g/mL): 1.5%
- antiplatelet aggregation activity (in words) (washed rabbit platelets): no obvious activity
- ED50 Hela [5]: - (“-“: ED50 /c6220 /c109g/mL)
- ED50 DLD [6]: - (“-“: ED50 /c6220 /c109g/mL)
- ED50 Hepa (Hepa: Human hepatoma): - (“-“: ED50 /c6220 /c109g/mL)
